Each block holds one compound with its values, some of them ahead of it. Calls of active or inactive are those of the source. No cut-off for these calls is given here.
Tests used:
Heparanase = molecular target: T1, Heparanase (Mus musculus, UniProt Q6YGZ1); assay: Inhibition of mouse B16-BL6 cells derived heparanase using [3H]HS as substrate after 6 hrs by size exclusion chromatography based liquid scintillation counting method
T1 sequence (Q6YGZ1 whole entry): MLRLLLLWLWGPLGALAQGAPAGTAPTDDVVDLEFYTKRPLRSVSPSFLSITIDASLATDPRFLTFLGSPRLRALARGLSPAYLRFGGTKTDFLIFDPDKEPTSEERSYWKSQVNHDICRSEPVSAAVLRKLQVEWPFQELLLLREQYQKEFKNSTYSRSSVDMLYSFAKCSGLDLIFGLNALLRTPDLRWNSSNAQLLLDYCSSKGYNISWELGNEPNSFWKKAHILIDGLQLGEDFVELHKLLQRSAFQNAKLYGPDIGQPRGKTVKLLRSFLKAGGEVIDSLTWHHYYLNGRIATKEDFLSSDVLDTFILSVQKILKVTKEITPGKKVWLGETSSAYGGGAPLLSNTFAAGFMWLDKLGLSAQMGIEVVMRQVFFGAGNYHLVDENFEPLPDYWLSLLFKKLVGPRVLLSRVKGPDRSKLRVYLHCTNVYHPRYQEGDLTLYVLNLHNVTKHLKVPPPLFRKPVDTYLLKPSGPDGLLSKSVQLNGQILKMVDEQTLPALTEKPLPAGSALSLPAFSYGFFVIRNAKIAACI

HT-1080 [1] = settings: Homo sapiens, 2.5 uM
Description: Inhibition of cell adhesion in human HT1080 cells at 2.5 uM incubated for 18 to 20 hrs by crystal violet staining based assay

U2OS = assay: Growth inhibition of human U2OS cells at 2.5 uM after 72 hrs by SRB assay relative to control; type: functional; settings: read-out: GI
HT-1080 [2] = assay: Growth inhibition of human HT1080 cells at 2.5 uM after 72 hrs by SRB assay relative to control; type: functional; settings: HT-1080, 72 h, read-out: GI
HT-1080 [3] = assay: Effect on growth factor mRNA expression in human HT1080 cells assessed as FGF1 mRNA level at 2.5 uM after 24 hrs by qPCR method (reference value: 100%); type: functional
HT-1080 [4] = assay: Anti-invasive activity against human HT1080 cells at 2.5 uM incubated for 24 hrs measured for 24 hrs by crystal violet staining based inverted microscopic method relative to control; type: functional
HT-1080 [5] = assay: Effect on HPSE1 mRNA expression in human HT1080 cells assessed as HPSE1 mRNA level at 2.5 uM after 24 hrs by qPCR method (reference value: 100%); type: functional
HT-1080 [6] = assay: Effect on MMP9 mRNA expression in human HT1080 cells assessed as MMP9 mRNA level at 2.5 uM after 24 hrs by qPCR method (reference value: 100%); type: functional
HT-1080 [7] = assay: Effect on growth factor mRNA expression in human HT1080 cells assessed as FGF2 mRNA level at 2.5 uM after 24 hrs by qPCR method (reference value: 100%); type: functional
HT-1080 [8] = assay: Effect on growth factor mRNA expression in human HT1080 cells assessed as VEGF mRNA level at 2.5 uM after 24 hrs by qPCR method (reference value: 100%); type: functional
U-87 MG = assay: Growth inhibition of human U87MG cells at 2.5 uM after 72 hrs by SRB assay relative to control; type: functional, U-87MG ATCC; settings: read-out: GI

Ki (Heparanase): 48 µM
Compound: Cc1ccc(C(=O)Nc2ccc(S(=O)(=O)O)c3cc(S(=O)(=O)O)cc(S(=O)(=O)O)c23)cc1NC(=O)c1cccc(NC(=O)Nc2cccc(C(=O)Nc3cc(C(=O)Nc4ccc(S(=O)(=O)O)c5cc(S(=O)(=O)O)cc(S(=O)(=O)O)c45)ccc3C)c2)c1 [SURAMIN]

Compound: Cn1cc(NC(=O)Nc2cc(C(=O)Nc3cccc(C(=O)Nc4ccc5c(S(=O)(=O)[O-])cccc5c4S(=O)(=O)[O-])c3)n(C)c2)cc1C(=O)Nc1cccc(C(=O)Nc2ccc3c(S(=O)(=O)[O-])cccc3c2S(=O)(=O)[O-])c1.[Na+].[Na+].[Na+].[Na+]
inhibition (HT-1080 [1]): Active | inhibition of growth at 2.5 µM (U2OS): < 50% | inhibition of growth at 2.5 µM (HT-1080 [2]): < 50% | Activity (HT-1080 [3]): 87% | Activity (HT-1080 [4]): >90% | Activity (HT-1080 [5]): 4% | Activity (HT-1080 [6]): 80% | Activity (HT-1080 [7]): 98% | Activity (HT-1080 [8]): 85% | inhibition of growth at 2.5 µM (U-87 MG): < 50%

Compound: Cn1cc(NC(=O)c2cc(NC(=O)Nc3cc(C(=O)Nc4cc(C(=O)Nc5ccc6c(S(=O)(=O)O)cccc6c5S(=O)(=O)O)n(C)c4)cc(C(F)(F)F)c3)cc(C(F)(F)F)c2)cc1C(=O)Nc1ccc2c(S(=O)(=O)O)cccc2c1S(=O)(=O)O
inhibition of growth at 2.5 µM (U2OS): < 50% | inhibition of growth at 2.5 µM (HT-1080 [2]): < 50% | inhibition of growth at 2.5 µM (U-87 MG): < 50%

Compound: Cc1c(NC(=O)c2cccc(NC(=O)Nc3cccc(C(=O)Nc4cc(C(=O)Nc5ccc6c(S(=O)(=O)O)cccc6c5S(=O)(=O)O)n(C)c4C)c3)c2)cc(C(=O)Nc2ccc3c(S(=O)(=O)O)cccc3c2S(=O)(=O)O)n1C
inhibition of growth at 2.5 µM (U2OS): < 50% | inhibition of growth at 2.5 µM (HT-1080 [2]): < 50% | inhibition of growth at 2.5 µM (U-87 MG): < 50%

Compound: Cn1cc(NC(=O)c2ccc(F)c(NC(=O)Nc3cc(C(=O)Nc4cc(C(=O)Nc5ccc6c(S(=O)(=O)O)cccc6c5S(=O)(=O)O)n(C)c4)ccc3F)c2)cc1C(=O)Nc1ccc2c(S(=O)(=O)O)cccc2c1S(=O)(=O)O
inhibition of growth at 2.5 µM (U2OS): < 50% | inhibition of growth at 2.5 µM (HT-1080 [2]): < 50% | inhibition of growth at 2.5 µM (U-87 MG): < 50%

Compound: Cn1cc(NC(=O)c2cccc(NC(=O)Nc3cccc(C(=O)Nc4cc(C(=O)Nc5ccc6c(S(=O)(=O)O)cccc6c5S(=O)(=O)O)n(C)c4)c3)c2)cc1C(=O)Nc1ccc2c(S(=O)(=O)O)cccc2c1S(=O)(=O)O
inhibition of growth at 2.5 µM (U2OS): < 50% | inhibition of growth at 2.5 µM (HT-1080 [2]): < 50% | inhibition of growth at 2.5 µM (U-87 MG): < 50%

Compound: Cc1ccc(C(=O)Nc2ccc3c(S(=O)(=O)O)cccc3c2S(=O)(=O)O)cc1NC(=O)c1cc(NC(=O)Nc2cc(C(=O)Nc3cc(C(=O)Nc4ccc5c(S(=O)(=O)O)cccc5c4S(=O)(=O)O)ccc3C)n(C)c2)cn1C
inhibition of growth at 2.5 µM (U2OS): < 50% | inhibition of growth at 2.5 µM (HT-1080 [2]): < 50% | inhibition of growth at 2.5 µM (U-87 MG): < 50%

Compound: O=C(Nc1cccc(C(=O)Nc2cc(C(=O)Nc3ccc4c(S(=O)(=O)O)cccc4c3S(=O)(=O)O)n(C3CC3)c2)c1)Nc1cccc(C(=O)Nc2cc(C(=O)Nc3ccc4c(S(=O)(=O)O)cccc4c3S(=O)(=O)O)n(C3CC3)c2)c1
inhibition of growth at 2.5 µM (U2OS): < 50% | inhibition of growth at 2.5 µM (HT-1080 [2]): < 50% | inhibition of growth at 2.5 µM (U-87 MG): < 50%

Compound: Cn1cc(NC(=O)Nc2cc(C(=O)Nc3cc(C(=O)Nc4ccc5c(S(=O)(=O)[O-])cccc5c4S(=O)(=O)[O-])n(C)c3)n(C)c2)cc1C(=O)Nc1cc(C(=O)Nc2ccc3c(S(=O)(=O)[O-])cccc3c2S(=O)(=O)[O-])n(C)c1.[Na+].[Na+].[Na+].[Na+]
Activity (HT-1080 [3]): 44% | Activity (HT-1080 [5]): 1% | Activity (HT-1080 [6]): 100% | Activity (HT-1080 [7]): 86% | Activity (HT-1080 [8]): 100%

Reference: ChEMBL document CHEMBL4177565, “Arylamidonaphtalene sulfonate compounds as a novel class of heparanase inhibitors” (Bioorg Med Chem Lett, 2017)
